Measured values as given in ChEMBL document CHEMBL5291721, “A preclinical secondary pharmacology resource illuminates target-adverse drug reaction associations of marketed drugs” (Nat Commun, 2023).

Tests used:
[1] = target: T1, Cholecystokinin receptor type A (Homo sapiens, UniProt P32238)
T1 sequence (P32238 whole entry): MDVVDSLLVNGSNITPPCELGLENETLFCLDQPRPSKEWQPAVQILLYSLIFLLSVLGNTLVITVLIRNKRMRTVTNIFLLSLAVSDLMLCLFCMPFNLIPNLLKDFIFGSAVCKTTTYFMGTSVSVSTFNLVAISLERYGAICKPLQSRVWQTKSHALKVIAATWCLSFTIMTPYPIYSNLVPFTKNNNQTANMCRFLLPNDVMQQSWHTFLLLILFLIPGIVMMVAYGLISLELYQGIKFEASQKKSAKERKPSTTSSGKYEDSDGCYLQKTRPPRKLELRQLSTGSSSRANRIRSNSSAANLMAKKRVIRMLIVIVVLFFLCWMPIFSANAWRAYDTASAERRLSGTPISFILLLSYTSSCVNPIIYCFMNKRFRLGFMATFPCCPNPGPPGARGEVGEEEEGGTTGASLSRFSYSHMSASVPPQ

[2] = target: cGMP-inhibited 3',5'-cyclic phosphodiesterase 3A (Homo sapiens, UniProt Q14432); format: functional
Vasopressin V1a receptor = Vasopressin V1a receptor (Homo sapiens, UniProt P37288)
[3] = target: Growth hormone secretagogue receptor type 1 (Homo sapiens, UniProt Q92847)
[4] = target: 3',5'-cyclic-AMP phosphodiesterase 4D (Homo sapiens, UniProt Q08499); format: functional
Motilin receptor = Motilin receptor (Homo sapiens, UniProt O43193)
[5] = target: T2, Equilibrative nucleoside transporter 1 (Homo sapiens, UniProt Q99808)
T2 sequence (Q99808 whole entry): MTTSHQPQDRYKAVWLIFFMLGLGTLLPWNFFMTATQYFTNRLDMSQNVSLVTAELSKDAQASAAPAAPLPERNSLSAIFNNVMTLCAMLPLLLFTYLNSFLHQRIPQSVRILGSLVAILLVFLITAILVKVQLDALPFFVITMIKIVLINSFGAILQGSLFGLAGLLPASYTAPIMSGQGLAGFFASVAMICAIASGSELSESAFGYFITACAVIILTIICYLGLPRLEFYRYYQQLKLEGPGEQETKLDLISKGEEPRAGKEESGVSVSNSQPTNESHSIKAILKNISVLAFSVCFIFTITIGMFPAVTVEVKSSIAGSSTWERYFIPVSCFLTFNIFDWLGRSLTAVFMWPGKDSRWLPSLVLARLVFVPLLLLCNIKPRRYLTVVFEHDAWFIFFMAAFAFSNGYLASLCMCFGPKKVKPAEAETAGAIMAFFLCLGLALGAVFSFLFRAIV

Melanocortin receptor 3 = Melanocortin receptor 3 (Homo sapiens, UniProt P41968)
[6] = target: T3, Prostaglandin G/H synthase 1 (Rattus norvegicus, UniProt Q63921); format: functional
T3 sequence (Q63921 whole entry): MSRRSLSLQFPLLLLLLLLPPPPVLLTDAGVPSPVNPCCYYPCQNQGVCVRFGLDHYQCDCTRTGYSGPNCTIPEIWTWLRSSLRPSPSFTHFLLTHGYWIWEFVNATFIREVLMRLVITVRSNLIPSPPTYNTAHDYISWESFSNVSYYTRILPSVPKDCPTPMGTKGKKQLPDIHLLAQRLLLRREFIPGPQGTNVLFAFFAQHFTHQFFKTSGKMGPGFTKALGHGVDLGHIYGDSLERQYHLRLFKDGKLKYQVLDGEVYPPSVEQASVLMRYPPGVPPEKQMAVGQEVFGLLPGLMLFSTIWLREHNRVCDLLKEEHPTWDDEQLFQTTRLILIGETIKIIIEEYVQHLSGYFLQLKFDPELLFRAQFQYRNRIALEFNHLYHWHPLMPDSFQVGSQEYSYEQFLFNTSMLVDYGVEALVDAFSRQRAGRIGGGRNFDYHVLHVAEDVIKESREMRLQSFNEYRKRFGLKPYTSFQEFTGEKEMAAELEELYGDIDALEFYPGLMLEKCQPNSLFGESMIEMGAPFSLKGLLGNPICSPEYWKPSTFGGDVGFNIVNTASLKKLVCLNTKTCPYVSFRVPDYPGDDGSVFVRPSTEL

[7] = target: Delta-type opioid receptor (Homo sapiens, UniProt P41143)
[8] = target: T4, Alpha-2A adrenergic receptor (Homo sapiens, UniProt P08913); format: functional, cell-based
T4 sequence (P08913 whole entry): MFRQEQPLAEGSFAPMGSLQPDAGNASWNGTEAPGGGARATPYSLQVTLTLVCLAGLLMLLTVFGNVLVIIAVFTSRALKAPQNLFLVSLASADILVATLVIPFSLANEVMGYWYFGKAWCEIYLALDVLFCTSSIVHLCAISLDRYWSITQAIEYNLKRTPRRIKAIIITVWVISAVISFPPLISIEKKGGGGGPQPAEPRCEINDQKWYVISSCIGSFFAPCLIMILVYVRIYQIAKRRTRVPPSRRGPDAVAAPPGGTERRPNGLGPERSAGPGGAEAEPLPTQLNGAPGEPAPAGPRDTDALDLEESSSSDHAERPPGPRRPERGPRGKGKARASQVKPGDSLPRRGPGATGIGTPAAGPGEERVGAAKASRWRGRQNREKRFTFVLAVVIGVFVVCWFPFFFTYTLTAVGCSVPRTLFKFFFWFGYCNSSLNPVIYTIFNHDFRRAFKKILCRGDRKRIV

[9] = target: Sodium-dependent noradrenaline transporter (Homo sapiens, UniProt P23975)
[10] = target: 5-hydroxytryptamine receptor 2B (Homo sapiens, UniProt P41595); format: functional, cell-based
D(1A) dopamine receptor = D(1A) dopamine receptor (Homo sapiens, UniProt P21728); format: functional, cell-based
Adenosine receptor A2a = Adenosine receptor A2a (Homo sapiens, UniProt P29274)
D(3) dopamine receptor = D(3) dopamine receptor (Homo sapiens, UniProt P35462)
[11] = target: Neuronal acetylcholine receptor subunit alpha-4 (Homo sapiens, UniProt P43681)
[12] = target: Gamma-aminobutyric acid receptor subunit alpha-1 (Rattus norvegicus, UniProt P62813); format: functional
Further: assay procedure not described here.

Chain of Sodium-dependent noradrenaline transporter (P23975 whole entry): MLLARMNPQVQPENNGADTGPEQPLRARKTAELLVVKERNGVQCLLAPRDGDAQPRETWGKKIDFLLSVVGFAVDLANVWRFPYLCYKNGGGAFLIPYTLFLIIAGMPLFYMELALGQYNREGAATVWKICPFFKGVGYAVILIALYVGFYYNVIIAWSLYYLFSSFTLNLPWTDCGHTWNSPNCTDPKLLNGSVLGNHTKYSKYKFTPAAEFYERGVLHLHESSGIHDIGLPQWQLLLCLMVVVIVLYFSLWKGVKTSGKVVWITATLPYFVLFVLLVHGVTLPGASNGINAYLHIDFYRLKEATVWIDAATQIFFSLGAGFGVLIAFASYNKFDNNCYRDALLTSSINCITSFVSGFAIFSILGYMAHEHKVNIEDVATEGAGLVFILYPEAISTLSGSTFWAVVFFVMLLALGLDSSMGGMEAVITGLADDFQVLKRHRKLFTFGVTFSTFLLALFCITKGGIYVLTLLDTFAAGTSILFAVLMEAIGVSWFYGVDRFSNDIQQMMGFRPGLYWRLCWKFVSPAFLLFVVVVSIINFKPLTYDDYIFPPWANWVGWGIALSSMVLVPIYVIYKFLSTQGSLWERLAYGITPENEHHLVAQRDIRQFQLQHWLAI
Chain of Delta-type opioid receptor (P41143 whole entry): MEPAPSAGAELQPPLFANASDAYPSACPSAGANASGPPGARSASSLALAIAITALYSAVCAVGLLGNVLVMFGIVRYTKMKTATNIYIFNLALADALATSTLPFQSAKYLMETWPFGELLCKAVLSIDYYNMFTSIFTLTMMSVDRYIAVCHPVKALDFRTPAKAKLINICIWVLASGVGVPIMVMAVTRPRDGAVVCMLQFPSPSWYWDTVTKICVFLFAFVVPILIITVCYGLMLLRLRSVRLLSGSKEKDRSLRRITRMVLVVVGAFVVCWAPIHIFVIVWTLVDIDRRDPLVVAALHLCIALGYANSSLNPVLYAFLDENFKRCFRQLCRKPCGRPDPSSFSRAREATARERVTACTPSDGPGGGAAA
Chain of cGMP-inhibited 3',5'-cyclic phosphodiesterase 3A (Q14432 whole entry): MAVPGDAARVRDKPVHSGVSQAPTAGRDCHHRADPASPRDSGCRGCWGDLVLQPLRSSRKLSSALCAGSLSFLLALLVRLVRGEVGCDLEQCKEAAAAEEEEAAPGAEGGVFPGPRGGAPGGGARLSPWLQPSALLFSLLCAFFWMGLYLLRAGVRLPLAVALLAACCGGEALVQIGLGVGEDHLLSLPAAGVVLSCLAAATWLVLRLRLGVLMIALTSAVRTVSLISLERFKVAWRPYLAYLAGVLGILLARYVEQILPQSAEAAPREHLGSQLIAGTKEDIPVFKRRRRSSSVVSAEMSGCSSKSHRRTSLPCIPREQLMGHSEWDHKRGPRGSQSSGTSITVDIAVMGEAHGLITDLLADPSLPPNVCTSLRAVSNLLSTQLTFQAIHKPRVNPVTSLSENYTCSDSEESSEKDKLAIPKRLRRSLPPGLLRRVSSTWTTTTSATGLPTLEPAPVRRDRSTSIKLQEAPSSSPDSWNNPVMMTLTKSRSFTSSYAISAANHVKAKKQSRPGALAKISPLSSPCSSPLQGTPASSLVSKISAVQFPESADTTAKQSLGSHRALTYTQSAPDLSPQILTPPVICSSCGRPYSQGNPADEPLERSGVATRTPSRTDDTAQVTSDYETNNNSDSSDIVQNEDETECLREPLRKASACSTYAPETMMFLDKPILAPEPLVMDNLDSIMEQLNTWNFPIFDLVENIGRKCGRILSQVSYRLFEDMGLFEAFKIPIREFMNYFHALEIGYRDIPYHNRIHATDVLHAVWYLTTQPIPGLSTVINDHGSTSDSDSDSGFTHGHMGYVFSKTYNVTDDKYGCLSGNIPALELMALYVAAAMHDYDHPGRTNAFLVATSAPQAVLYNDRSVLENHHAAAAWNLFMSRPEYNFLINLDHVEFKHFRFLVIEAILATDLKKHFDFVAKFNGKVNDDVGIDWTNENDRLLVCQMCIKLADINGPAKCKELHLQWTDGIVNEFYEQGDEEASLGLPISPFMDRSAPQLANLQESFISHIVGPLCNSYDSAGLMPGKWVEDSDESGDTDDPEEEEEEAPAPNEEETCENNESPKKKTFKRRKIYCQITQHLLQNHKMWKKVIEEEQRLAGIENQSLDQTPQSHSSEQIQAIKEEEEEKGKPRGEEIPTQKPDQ
Chain of D(3) dopamine receptor (P35462 whole entry): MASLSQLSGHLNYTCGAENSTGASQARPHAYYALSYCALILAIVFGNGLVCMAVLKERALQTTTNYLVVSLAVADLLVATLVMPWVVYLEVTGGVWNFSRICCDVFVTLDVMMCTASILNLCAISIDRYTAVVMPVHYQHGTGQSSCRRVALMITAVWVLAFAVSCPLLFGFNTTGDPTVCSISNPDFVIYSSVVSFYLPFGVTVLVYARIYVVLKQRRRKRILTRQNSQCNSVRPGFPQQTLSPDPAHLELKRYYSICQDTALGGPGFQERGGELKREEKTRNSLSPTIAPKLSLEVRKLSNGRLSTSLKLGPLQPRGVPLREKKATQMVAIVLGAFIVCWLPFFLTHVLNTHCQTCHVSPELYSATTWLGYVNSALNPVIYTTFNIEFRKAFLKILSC
Chain of Motilin receptor (O43193 whole entry): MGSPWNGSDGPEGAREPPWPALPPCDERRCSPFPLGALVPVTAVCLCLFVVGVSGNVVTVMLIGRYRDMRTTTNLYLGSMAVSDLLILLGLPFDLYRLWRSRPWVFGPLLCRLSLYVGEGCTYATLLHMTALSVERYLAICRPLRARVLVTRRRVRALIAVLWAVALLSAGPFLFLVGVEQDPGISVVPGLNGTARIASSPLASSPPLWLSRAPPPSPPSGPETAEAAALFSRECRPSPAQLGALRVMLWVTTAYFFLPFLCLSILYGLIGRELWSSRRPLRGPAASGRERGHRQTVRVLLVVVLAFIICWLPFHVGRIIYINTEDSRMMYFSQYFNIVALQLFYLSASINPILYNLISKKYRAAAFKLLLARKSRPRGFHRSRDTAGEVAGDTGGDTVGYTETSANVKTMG
Chain of Adenosine receptor A2a (P29274 whole entry): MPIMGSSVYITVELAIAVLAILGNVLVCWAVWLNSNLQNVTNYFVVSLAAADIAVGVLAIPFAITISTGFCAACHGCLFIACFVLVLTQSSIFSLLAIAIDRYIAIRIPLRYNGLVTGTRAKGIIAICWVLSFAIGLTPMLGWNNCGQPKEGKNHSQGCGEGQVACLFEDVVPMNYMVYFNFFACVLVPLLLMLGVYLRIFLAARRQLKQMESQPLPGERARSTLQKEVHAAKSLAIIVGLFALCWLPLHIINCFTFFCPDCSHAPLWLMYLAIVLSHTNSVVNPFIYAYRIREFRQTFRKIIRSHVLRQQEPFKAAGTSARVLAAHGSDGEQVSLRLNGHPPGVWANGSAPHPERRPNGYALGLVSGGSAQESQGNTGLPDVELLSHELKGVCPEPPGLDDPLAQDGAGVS
Chain of Melanocortin receptor 3 (P41968 whole entry): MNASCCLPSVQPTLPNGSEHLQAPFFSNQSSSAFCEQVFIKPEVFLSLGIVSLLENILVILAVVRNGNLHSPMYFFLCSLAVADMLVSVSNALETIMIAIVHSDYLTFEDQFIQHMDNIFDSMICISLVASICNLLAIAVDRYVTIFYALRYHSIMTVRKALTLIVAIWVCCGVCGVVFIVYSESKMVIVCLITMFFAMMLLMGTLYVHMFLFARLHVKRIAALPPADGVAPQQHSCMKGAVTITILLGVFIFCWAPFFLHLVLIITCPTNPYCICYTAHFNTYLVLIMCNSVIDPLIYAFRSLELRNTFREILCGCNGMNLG
Chain of Neuronal acetylcholine receptor subunit alpha-4 (P43681 whole entry): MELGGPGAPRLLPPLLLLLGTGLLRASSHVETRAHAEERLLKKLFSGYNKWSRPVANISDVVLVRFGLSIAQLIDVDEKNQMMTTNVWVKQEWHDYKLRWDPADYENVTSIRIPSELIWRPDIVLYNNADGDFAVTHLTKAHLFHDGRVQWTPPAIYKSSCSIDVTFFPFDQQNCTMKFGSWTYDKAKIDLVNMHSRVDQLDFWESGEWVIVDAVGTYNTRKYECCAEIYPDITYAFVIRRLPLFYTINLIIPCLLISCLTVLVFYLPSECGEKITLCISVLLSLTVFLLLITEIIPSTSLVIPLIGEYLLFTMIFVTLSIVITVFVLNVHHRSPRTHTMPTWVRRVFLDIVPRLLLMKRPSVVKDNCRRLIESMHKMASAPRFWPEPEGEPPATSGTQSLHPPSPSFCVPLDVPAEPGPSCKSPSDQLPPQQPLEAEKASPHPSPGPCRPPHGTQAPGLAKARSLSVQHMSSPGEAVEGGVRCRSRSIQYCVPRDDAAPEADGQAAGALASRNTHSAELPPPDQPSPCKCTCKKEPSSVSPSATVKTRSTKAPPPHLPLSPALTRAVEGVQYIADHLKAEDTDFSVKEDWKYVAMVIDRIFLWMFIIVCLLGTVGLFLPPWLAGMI
Chain of D(1A) dopamine receptor (P21728 whole entry): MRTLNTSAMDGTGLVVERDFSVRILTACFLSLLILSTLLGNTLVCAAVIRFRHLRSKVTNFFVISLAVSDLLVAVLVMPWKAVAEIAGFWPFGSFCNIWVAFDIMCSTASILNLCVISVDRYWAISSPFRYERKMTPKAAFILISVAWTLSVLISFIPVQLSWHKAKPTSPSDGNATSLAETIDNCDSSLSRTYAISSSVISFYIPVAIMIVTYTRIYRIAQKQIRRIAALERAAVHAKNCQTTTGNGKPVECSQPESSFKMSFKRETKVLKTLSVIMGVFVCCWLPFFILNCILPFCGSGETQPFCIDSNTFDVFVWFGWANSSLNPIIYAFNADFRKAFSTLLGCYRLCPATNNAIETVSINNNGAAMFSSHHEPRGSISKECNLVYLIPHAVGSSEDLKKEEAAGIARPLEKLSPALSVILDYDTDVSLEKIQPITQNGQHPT

| Compound | AC50 [1] [µM] | AC50 [2] [µM] | AC50 (Vasopressin V1a receptor) [µM] | AC50 [3] [µM] | AC50 [4] [µM] | AC50 (Motilin receptor) [µM] | AC50 [5] [µM] | AC50 (Melanocortin receptor 3) [µM] | AC50 [6] [µM] | AC50 [7] [µM] | AC50 [8] [µM] | AC50 [9] [µM] | AC50 [10] [µM] | AC50 (D(1A) dopamine receptor) [µM] | AC50 (Adenosine receptor A2a) [µM] | AC50 (D(3) dopamine receptor) [µM] | AC50 [11] [µM] | AC50 [12] [µM] |
| --- | --- | --- | --- | --- | --- | --- | --- | --- | --- | --- | --- | --- | --- | --- | --- | --- | --- | --- |
| C[N+]1(C)CCC(OC(=O)C(O)(c2ccccc2)C2CCCC2)C1 (stereo not drawn) [GLYCOPYRRONIUM BROMIDE] | > 30 | > 30 | > 30 | > 30 | > 30 | > 10 | > 30 | > 30 | – | – | – | – | – | – | – | – | – | – |
| O=P1(NCCCl)OCCCN1CCCl (stereo not drawn) [IFOSFAMIDE] | > 30 | 12 | – | > 30 | > 30 | > 30 | > 30 | > 30 | > 30 | > 30 | > 30 | > 30 | > 30 | > 30 | > 30 | > 30 | > 30 | > 30 |
| Clc1ccc(C(c2ccccc2Cl)C(Cl)Cl)cc1 (stereo not drawn) [MITOTANE] | > 10 | > 30 | – | > 10 | > 30 | > 10 | > 10 | > 10 | > 10 | > 30 | > 10 | > 10 | > 10 | > 10 | > 10 | > 30 | > 10 | > 10 |
| Cc1nc([N+](=O)[O-])cn1-c1ccc([N+](=O)[O-])cc1 [NITREFAZOLE] | > 30 | > 30 | > 30 | > 30 | > 30 | > 30 | – | > 30 | > 30 | > 30 | > 30 | – | > 30 | > 30 | > 30 | > 30 | > 30 | > 30 |
| CCCN1C[C@H](CSC)C[C@@H]2c3cccc4[nH]cc(c34)C[C@H]21 [PERGOLIDE] | > 30 | > 30 | > 30 | > 30 | > 30 | > 30 | > 30 | > 30 | > 30 | > 30 | – | > 30 | 0.0155 | – | > 30 | – | > 30 | > 30 |
| COc1cc(NC(C)CCCN)c2ncccc2c1 (stereo not drawn) [PRIMAQUINE] | > 30 | 2.9 | – | > 30 | 12 | > 30 | – | > 30 | > 30 | – | – | – | – | – | > 30 | – | – | – |
| Clc1ccc2nsnc2c1NC1=NCCN1 [TIZANIDINE] | > 30 | > 30 | > 10 | > 30 | > 30 | > 10 | > 30 | > 30 | > 30 | > 30 | – | > 10 | > 30 | > 10 | > 30 | > 10 | > 10 | > 10 |
